{"source": "patent US11174216B2", "about": "“Lipids that increase insulin sensitivity and methods of using the same” (Beth Israel Deaconess Medical Center, Inc., priority 2012, dated 2021)", "key": {"STC-1 cells [1]": {"tested_on": "STC-1 cells", "test": "ERK phosphorylation in STC-1 cells (immunoblot)", "type": "cell-based", "conditions": "15 minutes", "experimental": "For the experiments summarized in FIG. 50, STC-1 cells were incubated with 9-PAHSA, 5-PAHSA or 9-OAHSA at the indicated concentrations. Cells were harvested and lysed and proteins were separated by SDS PAGE and transferred onto nitrocellulose filters. The phosphorylation of ERK and the amount of total ERK was determined by immunoblotting with antibodies specific for total or phosphor-ERK. DMSO was the control. For ERK phosphorylation, cells were serum deprived overnight and stimulated with FAHFAs or vehicle as indicated for 15 minutes followed by lysis in RIPA buffer and analysis by SDS-PAGE"}, "STC-1 cells [2]": {"tested_on": "STC-1 cells", "test": "GLP-1 secretion in STC-1 enteroendocrine cells (ELISA)", "type": "cell-based", "experimental": "For the experiments summarized in FIG. 51 STC-1 cells were incubated with vehicle (DMSO), 9-PAHSA, 5-PAHSA or 9-OAHSA at the indicated concentrations or lineolic acid (100 uM) as a positive control. Media was harvested and GLP-1 was measured by ELISA.\nFor the experiments summarized in FIG. 52, the same protocol as described for FIG. 51 was used, except in this experiment a time course was performed. For both FIG. 51 and FIG. 52, for GLP-1 secretion STC1 cells were washed 3× with serum free culture media followed by stimulation with FAHFAs or vehicle at the indicated concentrations and timepoints. Levels of active GLP-1 were measured by ELISA."}, "GPR120": {"molecular_target": "T1, GPR120 (Homo sapiens, UniProt Q5NUL3)", "T1 sequence (Q5NUL3 1-361)": "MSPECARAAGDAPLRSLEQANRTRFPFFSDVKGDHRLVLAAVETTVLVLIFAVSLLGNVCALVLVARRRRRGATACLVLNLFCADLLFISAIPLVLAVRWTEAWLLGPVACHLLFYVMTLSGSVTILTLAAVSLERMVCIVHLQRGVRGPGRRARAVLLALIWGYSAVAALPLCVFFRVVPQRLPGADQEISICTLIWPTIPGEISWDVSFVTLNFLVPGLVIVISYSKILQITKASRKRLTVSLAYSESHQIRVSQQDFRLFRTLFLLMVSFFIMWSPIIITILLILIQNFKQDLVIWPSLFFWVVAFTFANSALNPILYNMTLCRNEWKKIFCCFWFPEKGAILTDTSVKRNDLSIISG", "test": "PATHHUNTER beta-Arrestin GPCR assay", "type": "cell-based", "excerpt": "For the experiments summarized in FIGS. 53-55, the fragment based GPCR assay from DiscoveRx (PATHHUNTER® β-Arrestin assay) was used to as per manufacturer's instructions to determine activation of specific GPCRs as indicated in FIGS. 53-55."}, "[3]": {"tested_on": "FA-CoA:HFA acyltransferase activity", "test": "FAHFA biosynthesis (FA-CoA:HFA acyltransferase) assay in tissue lysates", "type": "biochemical", "conditions": "10 uM 9-HSA and oleoyl-CoA, increasing doses", "experimental": "In order to understand the biology of the new FAHFA lipid class more completely, experiments were performed to identify an enzyme capable of synthesizing FAHFAs as well. By structural analogy to other lipid metabolites such as diacylglycerols or wax esters, it was hypothesized that hydroxy fatty acids were the immediate precursors to FAHFAs. Candidate acyltransferases were identified by reacting the common biochemical acyl carrier, oleoyl-CoA, with 9-hydroxystearic acid (9-HSA) in the presence of cell lysates or tissue membrane lysates to form 9-OAHSA (Scheme 2; FIG. 61 ).\nAfter first establishing that FA-CoA:HFA acyltransferase activity was membrane-localized in liver (not shown), we isolated membrane fractions from liver or WAT tissue lysate by ultracentrifugation, then resuspended the pellets in PBS buffer and diluted to 1 mg/ml protein concentration. […] The reaction mixtures were extracted with ethyl acetate, concentrated, and reconstituted in 1:1 chloroform:methanol for MS analysis. Formation of 9-OAHSA was measured by MS/MS, with which the appearance of the parent ion m/z 563 was monitored.\nIn light of the above results acyltransferase families that have been reported to have a membrane-bound localization and to have the ability to conjugate FA-CoA to a hydrophobic alcohol were targeted. […]"}, "HepG2 cells": {"tested_on": "HepG2 cells", "test": "PPAR agonist studies, FAHFA levels in HepG2 cells", "type": "cell-based", "conditions": "0.5 uM and 1.0 uM, 48 hr, cells and media", "experimental": "In this example, HepG2 cells were seeded in 6-well plates. At 80% confluence, cells were treated with two different concentrations [0.5 uM and 1.0 uM] of an agonist of PPAR α (WY14643), δ (CAY10592), or γ (Pioglitazone) for 48 hr in HepG2 media with 2.5% FBS. At the end of incubation, 500 uL of media was collected and the cells were collected in PBS for lipid extraction. Lipids were extracted from both media and cells to quantitate the FAHFA levels by Mass Spec. The results are summarized in FIGS. 33 and 34 for the cells and media, respectively.\nHepG2 cells were seeded in 6-well plate. At 80% confluence, cells were treated with two different concentrations [0.5 μM and 1.0 μM] of PPAR α/δ/γ agonists for 48 h in HepG2 media containing 2.5% fetal bovine serum (PPAR α agonist—WY14643; PPAR δ agonist—CAY10592; PPAR γ agonist—Pioglitazone). At the end of incubation, 500 μL of media and the cells were collected in PBS. Lipids were extracted as per Folch Method from both media and cells to quantitate the FAHFA levels by Mass Spec. Briefly, chloroform and methanol were added to the media or cells in 2:1 ratio and sonicated for 2-3 min and centrifuged at 3000 rpm for 10 min at 4° C. […] Calculated volume of chloroform is added to the dissolve the lipids and 2 μL of injection volume was used to analyze FAHFAs through Mass spec. […]"}, "[4]": {"tested_on": "FAHFA hydrolysis activity in liver lysate"}, "[5]": {"tested_on": "carboxyl ester lipase (CEL)"}, "[6]": {"tested_on": "FAHFA hydrolysis activity in pancreas membrane lysate", "test": "FAHFA hydrolysis activity assay, pancreas membrane lysate", "conditions": "pancreas lysate"}}}
{"smiles": "CCCCCCCC/C=C\\CCCCCCCC(=O)OC(CCCCCCCCC)CCCCCCCC(=O)O", "note": "(stereo not shown) [9-OAHSA]", "values": [{"measurement": "ERK phosphorylation", "setting": "STC-1 cells [1]", "result": "induce ERK phosphorylation"}, {"measurement": "GLP-1 secretion", "setting": "STC-1 cells [2]", "result": "induce GLP-1 secretion"}, {"measurement": "activation of GPR120", "setting": "GPR120", "result": "but not 9OAHSA, activate GPR120"}]}
{"smiles": "O=C(Nc1ccccc1)Nc1ccc(-c2ccc(C(=O)[C@@H]3CCC[C@H]3C(=O)O)cc2)cc1", "note": "[A922500]", "values": [{"measurement": "9-OAHSA levels (FAHFA production)", "setting": "[3]", "result": "no change"}]}
{"smiles": "O=C(O)COc1ccc(SCC=C(c2ccc(Br)cc2)c2ccc(Br)cc2)cc1Cl", "note": "[CAY10592]", "values": [{"measurement": "FAHFA production in liver cells", "setting": "HepG2 cells", "result": "stimulate FAHFA production"}]}
{"smiles": "CCCCCCCCCCC(C)(C)C(=O)Nc1c(OC)cc(OC)cc1OC", "note": "[CI976]", "values": [{"measurement": "9-OAHSA levels (FAHFA production)", "setting": "[3]", "result": "no change"}]}
{"smiles": "C[C@H](CCC(=O)NCCS(=O)(=O)O)[C@H]1CC[C@H]2[C@@H]3[C@H](O)C[C@@H]4C[C@H](O)CC[C@]4(C)[C@H]3C[C@H](O)[C@]12C", "note": "[NaTC, sodium taurocholate, reference compound]", "values": [{"measurement": "effect on FAHFA hydrolysis", "setting": "[4]", "result": "not enhanced"}, {"measurement": "effect on FAHFA hydrolysis", "setting": "[5]", "result": "enhanced"}, {"measurement": "effect on FAHFA hydrolysis", "setting": "[6]", "result": "markedly increased"}]}
{"smiles": "Cc1cccc(Nc2cc(Cl)nc(SCC(=O)O)n2)c1C", "note": "[WY14643]", "values": [{"measurement": "FAHFA production in liver cells", "setting": "HepG2 cells", "result": "stimulate FAHFA production"}]}
